The text below walks through data of US8592379B2, “Metastin derivative and use thereof” (Kyoto University, priority 2008, dated 2013).

Read-outs that look alike come from different tables or passages of the source.

Data set [1] is described as follows: Half-life of the compound in the serum. The conditions noted are these: for t1/2: in the serum; for half-life: serum, t1/2, in the serum.
Description: (§2) In addition, the half-life (t1/2) of the compound in the serum was measured.
The target of data set [2] is T1, GPR54 (Homo sapiens (Human), UniProt Q969F8). Kind of data set: Flipr assay of GPR54 agonist activity (increase in intracellular Ca2+ ion concentration). In kind it is cell-based. The conditions noted are these: for % Activity / activity at 0.01 µM: signal upon addition of 10 nM compound, based on signal of 1 μM kisspeptin-10 as 100%.
Description: The GPR54 agonist activity of the obtained compounds was evaluated by Flipr assay measuring increase in the intracellular Ca^2+ ion concentration caused by stimulation of receptor as a signal.
The target of a further data set is MMP9 (Homo sapiens (Human), UniProt P14780). Nature of the data set: Resistance to decomposition by matrix protease MMP9. In kind it is in vitro ADME. The conditions noted are these: for retention after treatment with MMP9: 72 hr, in words. From the text:
(§1) Furthermore, the resistance of the present invention to the decomposition by matrix protease (MMP) was examined. […] However, only about 50% of compound 1 was retained.

Another data set addresses MMP2 (Homo sapiens (Human), UniProt P08253). Kind of data set: Resistance to decomposition by matrix protease MMP2. As to conditions: for retention after treatment with MMP2: 48 hr, in words. In kind it is in vitro ADME.
Description: as §1

For data set [3] the following is noted: serum.
Description: as §2
Data set [4] addresses T1, GPR54. Kind of data set: Binding inhibitory test using membrane fraction of human GPR54-expressing cell and [125I]-Metastin 40-54.
Description: A binding inhibitory test using membrane fraction of human GPR54-expressing cell and [^125I]-Metastin 40-54 was performed, and IC50 value was calculated (see non-patent document 2).

T1 sequence (Q969F8 whole entry): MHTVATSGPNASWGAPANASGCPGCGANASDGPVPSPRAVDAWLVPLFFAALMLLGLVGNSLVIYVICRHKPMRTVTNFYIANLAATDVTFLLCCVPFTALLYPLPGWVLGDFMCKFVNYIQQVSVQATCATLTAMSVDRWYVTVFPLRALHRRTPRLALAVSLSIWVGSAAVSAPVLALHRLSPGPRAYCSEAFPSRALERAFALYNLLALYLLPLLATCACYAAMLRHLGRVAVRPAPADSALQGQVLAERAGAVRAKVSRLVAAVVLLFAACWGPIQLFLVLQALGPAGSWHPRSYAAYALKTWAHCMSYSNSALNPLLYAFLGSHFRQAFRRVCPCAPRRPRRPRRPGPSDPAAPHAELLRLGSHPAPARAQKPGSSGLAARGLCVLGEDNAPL

In data set [1], `CC(C)CC(C[C@@H](O)CNC(=O)[C@H](Cc1ccccc1)NC(=O)c1ccc(F)cc1)C(=O)N[C@@H](CCCNC(=N)N)C(=O)N[C@@H](Cc1c[nH]c2ccccc12)C(N)=O` (single isomer, unassigned) [Compound 24a] showed a t1/2 of 470 h. Further, the “% Activity” value at GPR54 [2] is on record as 0.6%.
The matching figures for `CC(C)CC(C[C@@H](O)CNC(=O)[C@H](Cc1ccccc1)NC(=O)c1ccc(F)cc1)C(=O)N[C@@H](CCCNC(=N)N)C(=O)N[C@@H](Cc1c[nH]c2ccccc12)C(N)=O` (single isomer, unassigned) [Compound 24b]: 54 h and 53.9%.
The matching figures for `CC(C)CC(C[C@H](O)CNC(=O)[C@H](Cc1ccccc1)NC(=O)c1ccc(F)cc1)C(=O)N[C@@H](CCCNC(=N)N)C(=O)N[C@@H](Cc1c[nH]c2ccccc12)C(N)=O` (single isomer, unassigned) [Compound 25a]: 120 h and 13.8%.
`CC(C)CC(C[C@H](O)CNC(=O)[C@H](Cc1ccccc1)NC(=O)c1ccc(F)cc1)C(=O)N[C@@H](CCCNC(=N)N)C(=O)N[C@@H](Cc1c[nH]c2ccccc12)C(N)=O` (single isomer, unassigned) [Compound 25b] had a t1/2 in data set [1] of 35 h. In addition, the “retention after treatment with MMP9” value on MMP9 is recorded as “retained even after 72 hr with scarce decomposition”. Also, the “retention after treatment with MMP2” value on MMP2 is “retained even after 48 hr with scarce decomposition”. At GPR54 [2], the “% Activity” value came out at 95.6%.
Take `CC(C)C[C@H](NC(=O)CNC(=O)[C@H](Cc1ccccc1)NC(=O)c1ccc(F)cc1)C(=O)N[C@@H](CCCN=C(N)N)C(=O)N[C@@H](Cc1c[nH]c2ccccc12)C(N)=O` [Compound 1, reference compound]: the remaining at 72 h on MMP9 (isolated matrix protease MMP9, read-out: amount retained after treatment with MMP9) is approximately 50%. Further, the t1/2 in data set [3] was determined as 6.6 h. For the same compound, at GPR54 [2], the activity at 0.01 µM was determined as 94.7%.
In the case of `CC(C)C[C@H](/C=C/CNC(=O)[C@H](Cc1ccccc1)NC(=O)c1ccc(F)cc1)C(=O)N[C@@H](CCCN=C(N)N)C(=O)N[C@@H](Cc1c[nH]c2ccccc12)C(N)=O` [Compound 19], the half-life (usually the time in which the quantity being followed falls by half) in data set [1] was 38 h. Further, the “retention after treatment with MMP9” value on MMP9 was “retained even after 72 hr with scarce decomposition”. The “retention after treatment with MMP2” value on MMP2 is “retained even after 48 hr with scarce decomposition”. The compound also returned an activity at 0.01 µM on GPR54 [2] of 97.6%.
Consider `CC(C)C[C@H](CCCNC(=O)[C@H](Cc1ccccc1)NC(=O)c1ccc(F)cc1)C(=O)N[C@@H](CCCNC(=N)N)C(=O)N[C@@H](Cc1c[nH]c2ccccc12)C(N)=O` [Compound 20], for which the half-life in data set [1] was 45 h. On GPR54 [2], this compound gave an activity at 0.01 µM of 70.3%.
The matching figures for `CC(C)C/C(=C\CCNC(=O)[C@H](Cc1ccccc1)NC(=O)c1ccc(F)cc1)C(=O)N[C@@H](CCCNC(=N)N)C(=O)N[C@@H](Cc1c[nH]c2ccccc12)C(N)=O` [Compound 21]: 52 h and 49.3%.
The like results for `CC(C)C/C(=C\[C@@H](O)CNC(=O)[C@H](Cc1ccccc1)NC(=O)c1ccc(F)cc1)C(=O)N[C@@H](CCCNC(=N)N)C(=O)N[C@@H](Cc1c[nH]c2ccccc12)C(N)=O` [Compound 22] were, in that order, 60 h and 18.7%.
With `CC(C)C/C(=C\[C@H](O)CNC(=O)[C@H](Cc1ccccc1)NC(=O)c1ccc(F)cc1)C(=O)N[C@@H](CCCN=C(N)N)C(=O)N[C@@H](Cc1c[nH]c2ccccc12)C(N)=O` [Compound 23], the half-life in data set [1] was 1100 h. Besides, the “retention after treatment with MMP9” value at MMP9 is listed as “retained even after 72 hr with scarce decomposition”. The same compound registered an activity at 0.01 µM at GPR54 [2] of 0.7%.
With `CC(C)C[C@H](NC(=O)CNC(=O)[C@H](Cc1ccccc1)NC(=O)[C@H](CO)NC(=O)[C@H](CC(N)=O)NC(=O)[C@H](Cc1c[nH]c2ccccc12)NC(=O)[C@H](CC(N)=O)NC(=O)[C@@H](N)Cc1ccc(O)cc1)C(=O)N[C@@H](CCCNC(=N)N)C(=O)N[C@@H](Cc1ccccc1)C(N)=O` [Kisspeptin-10, reference compound], the remaining at 48 h at MMP2 (isolated matrix protease MMP2, read-out: amount retained after treatment with MMP2) is approximately 65%. For the same compound, on GPR54 [4] (IC50 of compound divided by IC50 of kisspeptin-10), the QIC was found to be 1. Moreover, the IC50 (usually the midpoint of a concentration-inhibition curve) at GPR54 [4] ([125I]-Metastin 40-54 as labeled ligand, membrane fraction) was in the range of 0.07 to 0.12 nM. The same compound displayed a QEC on GPR54 [2] (EC50 of compound divided by EC50 of kisspeptin-10) of 1.
